Structures are written as SMILES.

Format in all cases: functional
For assay [1], the system named is P388. As to the kind of experiment: In vivo antitumor activity against mouse P388 cells at 2 mg/kg relative to control.
For assay [2], the system named is P388. Kind of assay: In vivo antitumor activity against mouse P388 cells at 0.5 mg/kg relative to control.
Assay [3] relates to P388. As to the kind of experiment: In vivo antitumor activity against mouse P388 cells at 9 mg/kg relative to control.
The subject of assay [4] is P388. Kind of assay: In vivo antitumor activity against mouse P388 cells at 4 mg/kg relative to control.

With `CCC(C)C(=O)O[C@H]1C(=O)O[C@@H]2C[C@H]3C(C)=CC(=O)[C@@H](O)[C@]3(C)[C@H]3[C@]4(O)OC[C@]32[C@@H]1[C@@H](C)[C@H]4O` (some centres undefined) [AILANTHINONE], in the assay with P388 [1], the T/C was found to be 148%. For `CC[C@](C)(O)C(=O)O[C@H]1C(=O)O[C@@H]2C[C@H]3C(C)=CC(=O)[C@@H](O)[C@]3(C)[C@H]3[C@@]4(O)OC[C@]32[C@@H]1[C@@H](C)[C@H]4O` [GLAUCARUBINONE], the T/C in the assay with P388 [2] amounted to 231%.

Consider `CC(=O)O[C@H]1C(=O)O[C@@H]2C[C@H]3C(C)=CC(=O)[C@@H](O)[C@]3(C)[C@H]3[C@]4(O)OC[C@]32[C@@H]1[C@@H](C)[C@H]4O` [HOLACANTHONE], for which the T/C in the assay with P388 [3] is on record as 159%. In the assay with P388 [4], `CC1=CC(=O)[C@@H](O)[C@]2(C)[C@H]3[C@]4(O)OC[C@]35[C@H]([C@@H](C)[C@H]4O)[C@@H](OC(=O)CC(C)(C)O)C(=O)O[C@@H]5C[C@@H]12` [SOULARUBINONE] showed a T/C of 137%.

As usually defined, the T/C is the ratio of treated to control.

Source of the values: ChEMBL document CHEMBL1151361, “Soularubinone, a new antileukemic quassionoid from Soulamea tomentosa” (1981).
